{
  "source": "patent US20080139534A1",
  "about": "“Bisbenzamidines and bisbenzamidoximes for the treatment of human African trypanosomiasis” (XAVIER UNIVERSITY OF LOUISIANA, priority 2006, published 2008)",
  "key": {"[1]": {"test_system": "T. b. brucei Lab 110 EATRO", "assay": "In vitro trypanocidal activity, bloodforms in HMI-18 medium, Coulter counts", "type": "cell-based, Trypanosoma brucei brucei", "conditions": "Trypanosoma brucei; 48 h exposure, bloodforms; read-out: Lab 100 EATRO IC50", "method": "(§1) The compounds were tested against trypanosome isolates grown as blood forms in HMI-18 medium containing 20% horse serum in 24 well microplates at 37° C. in 5% CO2. Wells were inoculated with 1×10^5 trypanosomes. […] One-half the volume was replaced daily. Cell counts were made daily with a Coulter Counter, Model Z1 (Beckman Coulter, Miami, Fla., USA). Cells were diluted with Isoton I buffer (Beckman Coulter) and the aperture was standardized at 5.14 μm. Background checks were performed daily on 1:10 dilutions of medium. Counts, normalization, and coincident counts were accounted for by the standardized Coulter analysis program. Occasionally, hemocytometer counts were performed as a check on the validity of the Coulter program. IC50 values were determined after 48 h from semi-log plots and the values are the result of duplicate determinations. Initially a broad concentration curve was used and then a close concentration curve from which IC50 values were determined. Assays were done in duplicate and each point was the average of the two. Control cells grew to 5×10^6/ml.\n(§2) Coulter counts were made daily and IC50 values determined after 48 hours exposure."}, "[2]": {"test_system": "T. b. rhodesiense KETRI 2538", "assay": "In vivo efficacy in infected mice, clinical isolate", "set-up": "species or system Trypanosoma brucei rhodesiense", "method": "(§3) Female Swiss-Webster mice (weight, 20 g) were infected (intraperitoneally) with 2.5×10^5 trypanosomes from rat blood, and the infection was allowed to develop for 24 h before drug treatment was begun. Groups of three mice each were injected (intraperitoneally) with each drug concentration. All of the experiments included a group of untreated controls. […] Animals were monitored weekly for parasites in tail vein blood smears. Mice were considered cured if they survived more than 30 days after the death of the last control with no parasites in tail vein blood smears. MSD (mean survival in days) was also recorded for each group. It is the average time of survival of the animals in the group, exclusive of cured animals.\n(§4) Mice were infected on day 1 with 2.5×10^5 trypanosomes and the infections allowed to progress 24 h. prior to dosing. Animals were dosed 1×/day i.p for 3 days. Cured animals survived >30 days beyond the death of untreated, infected controls. MSD=mean survival in days exclusive of cured animals. Dose as mg/kg/day."}, "[3]": {"test_system": "T. b. rhodesiense KETRI 243", "assay": "In vitro trypanocidal activity, bloodforms in HMI-18 medium, Coulter counts", "type": "cell-based, Trypanosoma brucei rhodesiense", "conditions": "Trypanosoma brucei, RHODESIENSE, 48 h exposure", "method": "as §1, §2"}, "[4]": {"test_system": "T. b. brucei Lab 110 EATRO", "assay": "In vivo efficacy in infected mice", "set-up": "species or system Trypanosoma brucei brucei", "conditions": "mice", "method": "Female Swiss-Webster mice (weight, 20 g) were infected (intraperitoneally) with 2.5×10^5 trypanosomes from rat blood, and the infection was allowed to develop for 24 h before drug treatment was begun. Groups of three mice each were injected (intraperitoneally) with each drug concentration. All of the experiments included a group of untreated controls. […] Parasitemia of animals dying of infection averaged 0.5-1.0×10^9/mL of blood. These infections are very predictable and daily counts were not done because of the labor involved. […] Animals were monitored weekly for parasites in tail vein blood smears. Mice were considered cured if they survived more than 30 days after the death of the last control with no parasites in tail vein blood smears. MSD (mean survival in days) was also recorded for each group. It is the average time of survival of the animals in the group, exclusive of cured animals.\nMice were infected with 250,000 parasites and dosing commenced 24 h. post infection. Mice were separated into groups of three and given single i.p doses for 3 days unless otherwise noted. Infected untreated controls were used for each experiment. Mice were considered cured if surviving more than 30 days beyond death of controls without parasites in tail vein blood smears. MSD, mean survival in days, exclusive of cured animals."}, "[5]": {"test_system": "T. b. rhodesiense KETRI 2002", "assay": "In vivo efficacy in infected mice, clinical isolate", "set-up": "species or system Trypanosoma brucei rhodesiense", "method": "as §3, §4"}, "[6]": {"test_system": "poly(dA-dT)", "assay": "Thermal denaturation study, DNA binding affinity (ΔTm);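 for DNA Binding Δ Tm Calf thymus: shift in midpoint melting temperature of calf thymus DNA thermal denaturation curves caused by compound binding, values averaged over at least two determinations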;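 for DNA Binding Δ Tm Poly (dA-dT): shift in the midpoint temperature of the thermal melting curve of poly(dA-dT), each value the mean of two or more independent determinations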", "conditions": "1:5 compound to base pair ratio", "method": "(§5) The binding affinity was measured by determining the change in the midpoint (Tm) of the thermal denaturation curves of calf thymus DNA as well as poly(dA-dT) at a 1:5 compound to base pair ratio."}, "[7]": {"test_system": "calf thymus DNA", "assay": "Thermal denaturation study, DNA binding affinity (ΔTm)", "conditions": "1:5 compound to base pair ratio", "method": "as §5"}, "[8]": {"test_system": "T. b. rhodesiense KETRI 1992", "assay": "In vivo efficacy in infected mice, clinical isolate", "set-up": "species or system Trypanosoma brucei rhodesiense", "method": "as §3, §4"}, "[9]": {"conditions": "25 mg/kg i.p., single dose (1x)"}, "[10]": {"conditions": "KETRI 1992, 5 mg/kg/day i.p. for 3 days"}, "[11]": {"conditions": "KETRI 1992, 10 mg/kg/day i.p. for 3 days"}, "[12]": {"conditions": "KETRI 1992, 15 mg/kg/day i.p. for 3 days"}},
  "data": [
    {"smiles": "N=C(N)c1ccc(NC(=O)CCCCC(=O)Nc2ccc(C(=N)N)cc2)cc1", "note": "[compound 0702]", "values": [
      {"measurement": "IC50", "setting": "[1]", "result": 2.8, "unit": "nM"},
      {"measurement": "MSD", "setting": "[2]; KETRI 2538, 5 mg/kg/day i.p. for 3 days", "result": ">30", "unit": "days"},
      {"measurement": "MSD", "setting": "[2]; KETRI 2538, 10 mg/kg/day i.p. for 3 days", "result": ">30", "unit": "days"},
      {"measurement": "MSD", "setting": "[2]; KETRI 2538, 15 mg/kg/day i.p. for 3 days", "result": ">30", "unit": "days"},
      {"measurement": "IC50", "setting": "[3]", "result": 2.45, "unit": "nM"},
      {"measurement": "# Cured/#Treated (%)", "setting": "[4]; 1 mg/kg/day i.p. for 3 days", "result": "0/3"},
      {"measurement": "MSD", "setting": "[4]; 1 mg/kg/day i.p. for 3 days", "result": 6.7, "unit": "days"},
      {"measurement": "MSD", "setting": "[4]; 5 mg/kg/day i.p. for 3 days", "result": ">30", "unit": "days"},
      {"measurement": "MSD", "setting": "[4]; 10 mg/kg/day i.p. for 3 days", "result": ">30", "unit": "days"},
      {"measurement": "MSD", "setting": "[4]; 15 mg/kg/day i.p. for 3 days", "result": ">30", "unit": "days"},
      {"measurement": "# Cured/#Treated (%)", "setting": "[4]; [9]", "result": "0/3"},
      {"measurement": "MSD", "setting": "[4]; [9]", "result": 22, "unit": "days"},
      {"measurement": "MSD", "setting": "[4]; 25 mg/kg/day i.p., 2 doses (2x)", "result": ">30", "unit": "days"},
      {"measurement": "MSD", "setting": "[5]; KETRI 2002, 10 mg/kg/day i.p. for 3 days", "result": ">30", "unit": "days"},
      {"measurement": "MSD", "setting": "[5]; KETRI 2002, 15 mg/kg/day i.p. for 3 days", "result": ">30", "unit": "days"},
      {"measurement": "MSD", "setting": "[5]; KETRI 2002, 25 mg/kg/day i.p. for 3 days", "result": ">30", "unit": "days"},
      {"measurement": "DNA Binding Δ Tm Poly (dA-dT)", "setting": "[6]", "result": 14.4, "unit": "°C"},
      {"measurement": "DNA Binding Δ Tm Calf thymus", "setting": "[7]", "result": 8.7, "unit": "°C"},
      {"measurement": "#Cured/Total", "setting": "[8]; [10]", "result": "0/3"},
      {"measurement": "MSD", "setting": "[8]; [10]", "result": 16.5, "unit": "days"},
      {"measurement": "#Cured/Total", "setting": "[8]; [11]", "result": "0/3"},
      {"measurement": "MSD", "setting": "[8]; [11]", "result": 17.5, "unit": "days"},
      {"measurement": "#Cured/Total", "setting": "[8]; [12]", "result": "0/3"},
      {"measurement": "MSD", "setting": "[8]; [12]", "result": 22, "unit": "days"}
    ]}
  ]
}
